Reference: ChEMBL document CHEMBL1157539, “Thousands of chemical starting points for antimalarial lead identification” (Nature, 2010)

System: Plasmodium falciparum
Test: GSK_TCMDC: Inhibition of Plasmodium falciparum 3D7 in whole erythrocytes, using parasite LDH activity as an index of growth.
Format: functional, organism-based
Conditions: Plasmodium falciparum, 3D7

| SMILES | XC50 |
| --- | --- |
| COc1cc(CN2CCC(NC(=O)[C@H](Cc3ccccc3)NC(=O)Nc3ccc(Oc4ccccc4)cc3)C2)ccc1O (some centres not stated) | 0.81 µM |
| COc1ccc2nccc([C@@H](O)CN3CCC(NC(=O)c4ccc5cc[nH]c5c4)CC3)c2c1 | 0.969 µM |
| COc1cc2c(cc1CCNCCCCNCCc1cc3c(cc1OC)CCCC3)CCCC2 | 0.996 µM |
| Cc1ccc(NC(=O)c2ccc3nccnc3c2)cc1OC1CCN(Cc2ccc(F)cc2)CC1 | 1.01 µM |
| CN1CCN(CCCCNc2c3ccccc3nc3ccccc23)CC1 | 0.704 µM |
| CCCCNCCOc1ccc(-c2nc(-c3ccccc3)c(-c3ccccc3)[nH]2)cc1 | 0.679 µM |
| CN1CCN(Cc2ccc(-c3ccc4c(Nc5cc(O)c(Cl)cc5F)ccnc4c3)o2)CC1 | 0.11 µM |
| Cc1ccc(-c2ccn(Cc3ccc(OCc4ccccc4)cc3)n2)cn1.Cc1ccc(-c2ccnn2Cc2ccc(OCc3ccccc3)cc2)cn1 | 0.674 µM |
| CC(C)C[C@H](NC(=O)c1ccc(OCCN2CCOCC2)cc1)C(=O)N[C@H](/C=N/NC(=O)c1ccccc1)CCc1ccccc1 | 0.0621 µM |
| CNCc1cccc2nc(-c3ccc(Cc4cc(Cl)ccc4OCC(C)C)o3)[nH]c12 | 0.895 µM |
| COc1ccc(CNC(=O)Nc2cc3cc(-c4ccc(CN(C)C)cc4)ccc3n3c(C)nnc23)cc1 | 0.852 µM |
| CC(C)c1ccc(S(=O)(=O)Nc2cccc(CCN3CCC(N4CCCCC4)CC3)c2)cc1 | 1.12 µM |
| Cn1ccnc1-c1nc2ccccn2c1NCC(=O)Nc1ccccc1N1CCCCC1 | 0.98 µM |
| COc1ccc(CN2CCC(NCc3cccc(C(F)(F)F)c3)CC2)cc1 | 0.753 µM |
| Cc1onc(-c2c(Cl)cccc2Cl)c1C(=O)N1CCc2cc3nccc(N4CCN5CCC[C@H]5C4)c3cc21 | 0.768 µM |
| COc1cccc(OC)c1OCCCOc1c(C)nc(N)nc1N | 0.459 µM |
| CCCCCNc1ccnc2cc(Cl)ccc12 | 0.509 µM |
| COc1ccc(CCCc2nc(N)nc(N)c2-c2ccc(Cl)cc2)cc1 | 0.0442 µM |
| CCCN(CCCCCCN(CCC)CCc1ccc(O)c(O)c1)CCc1ccc(O)cc1 | 1.01 µM |
| NC(=O)c1c(Cl)nc2ccccc2c1Cl | 0.96 µM |
| CC(C)(C)OC(=O)NCc1ccc(Nc2nnc(-c3cccc(C(=O)NCc4cc(C(F)(F)F)cc(C(F)(F)F)c4)c3)o2)cc1 | 0.865 µM |
| COc1ccc2nccc(N3CCC(NCCNCc4ccc5c(n4)NC(=O)CO5)C3)c2n1 (configuration not stated) | 0.862 µM |
| CC1(C)CN2CCCC2c2cc(NC(=O)/C=C/c3ccccc3Cl)ccc21 (configuration not stated) | 0.991 µM |
| COc1cc2nc(Cl)nc(Nc3ccncc3)c2cc1OC | 1.21 µM |
| CCNc1cc(-c2cccc(OC)c2)nc(Nc2ccc(F)cc2)n1 | 1.27 µM |

| SMILES | XC50 |
| --- | --- |
| N=C1NC(=N)N(OCCCCCCON2C(=N)NC(=N)NC2C=Cc2ccccc2)C(C=Cc2ccccc2)N1 (configuration not stated) | 0.615 µM |
| O=S(=O)(c1cccc(Br)c1)N1CCCCC(c2ccc(C(F)(F)F)cc2)=N1 | 0.553 µM |
| Cc1cc(N2CCCC2)nc(Nc2ccc(NC(=O)c3ccccc3)cc2)n1 | 0.977 µM |
| O=C(Nc1ccc([N+](=O)[O-])cc1Cl)c1cc(Br)cc(Cc2ccccc2)c1O | 1.29 µM |
| Cc1[nH]c2ccc(O)cc2c1C1CCN(CC2CCN(C(=O)/C=C/c3ccc(Cl)c(Cl)c3)CC2)CC1 | 0.998 µM |
| O=C(NCCc1cccc(F)c1)c1cc(Br)cc(N2CCN(c3ccncc3)CC2)c1 | 0.764 µM |
| CC1(CCCCN2CCC(c3c[nH]c4cnccc34)CC2)C(=O)Nc2cccc(Cl)c21 (configuration not stated) | 0.868 µM |
| Clc1ccccc1C=NN=c1cc[nH]c2ccccc12 | 0.85 µM |
| COc1cccc(C2CCN(CCN3CCC(NC(=O)c4ccc(-c5ccc(C(F)(F)F)cc5)cc4)CC3)CC2)c1 | 0.203 µM |
| NC(=O)c1cccc(C(=O)Nc2cccc(-c3ccc(-c4nc5ccccc5[nH]4)s3)c2)c1 | 0.349 µM |
| CCOc1cc(C(=O)N[C@@H](Cc2ccccc2)[C@H](O)CNCc2cc(OC)cc(OC)c2)cc(N2CCCCS2(=O)=O)c1 | 0.519 µM |
| O=C1O[C@H](c2ccccc2)[C@H](c2ccccc2)N(C(=O)OCc2ccccc2)[C@H]1Cc1ccccc1C1CCCC1 | 0.0591 µM |
| Cc1nc(C)c(-c2ccc(Oc3ccc(Cl)c(Cl)c3)cc2)c(O)c1Br | 0.304 µM |
| O=c1cc(NCCCNC2CCc3ccc(Cl)cc32)[nH]c2ccccc12 (configuration not stated) | 0.862 µM |
| O=C1C(C2CCC(c3ccc(Cl)cc3)CC2)=C2OCC3COC2(O3)c2ccccc21 (configuration not stated) | 0.039 µM |
| CCN1CCC(N(Cc2ccc(-c3ccc(C(F)(F)F)s3)cc2)C(=O)Cn2c(CCc3cccc(F)c3F)nc(=O)c3ccccc32)CC1 | 0.932 µM |
| CCNCc1cccc(-c2ccc3ccnc(N)c3c2)c1 | 0.0469 µM |
| Cc1cccn2c(=O)c3cc(C(=O)NC(C)c4ccccc4)c(=N)n(CCc4ccccc4)c3nc12 (configuration not stated) | 0.554 µM |
| Cc1ccc(Cn2nc(N3CCNCC3)ccc2=O)cc1NC(=O)Nc1ccc(-c2ccccc2)cc1 | 0.836 µM |
| Cc1nc2ccccc2n1C1CC2CCC(C1)N2Cc1nccn1-c1ccccc1 (configuration not stated) | 0.366 µM |
| CC(C)CNCc1ccc(-c2cccc(CNc3ccc4ncccc4c3)c2)cc1 | 0.913 µM |
| O=C(CCC(=O)c1ccc2c3c(cccc13)CC2)NC1CCC(CN2CCC(c3c[nH]c4ccccc34)CC2)CC1 (configuration not stated) | 0.918 µM |
| O=C(Nc1cccc(CN2CCN(C(=O)c3ccccc3)CC2)c1)c1cccs1 | 0.308 µM |
| c1ccc(C2CCN(Cc3ccc(-c4c[nH]c5nc(NC6CCCC6)ncc45)cc3)CC2)cc1 | 1.01 µM |
| Oc1ccccc1CNCC(O)c1cc(C(F)(F)F)cc(C(F)(F)F)c1 (configuration not stated) | 0.184 µM |

| SMILES | XC50 |
| --- | --- |
| O=C(/C=C/c1ccc(Cl)c(Cl)c1)N(Cc1ccccc1)C1CCC(CN2CCC(c3c[nH]c4ccccc34)CC2)CC1 (configuration not stated) | 0.209 µM |
| COC(=O)c1sc2ccccc2c1NC(=O)c1ccc(C)c(C)c1 | 1.07 µM |
| Cc1ccc(CNC(=O)[C@H](CCCN)Nc2cc(C)nc(NCC3CCCCC3)n2)cc1 | 1.22 µM |
| O=C(Nc1ccc(F)cc1)N1CCCN(c2ccnc3cc(Cl)ccc23)CC1 | 0.785 µM |
| Cc1ccccc1CNCC(O)c1cccc(C(F)(F)F)c1 (configuration not stated) | 0.881 µM |
| Cc1ccccc1Cn1c(CN2CCC(C(=O)NC3CC3)CC2)cc2ccccc21 | 0.477 µM |
| CC(C)(C)OC(=O)N[C@@H](Cc1ccccc1)C(=O)Nc1cccc(-c2cccc(NC(=O)[C@H](Cc3ccccc3)NC(=O)OC(C)(C)C)c2)c1 | 0.609 µM |
| CC(C#N)Cc1ccc(-c2cnc(N)c3cc(-c4ccnc(N)n4)ccc23)cc1 (configuration not stated) | 0.986 µM |
| COc1ccc2c(NN=Cc3cccc(F)c3)ccnc2c1 | 0.207 µM |
| O=C(O)c1ccc(OCOCOc2ccc(C(=O)O)c(O)c2)cc1O | 0.19 µM |
| Cc1cc(C)nc(-n2[nH]c(C)c(Cc3ccc(C(C)(C)C)cc3)c2=O)n1 | 1.01 µM |
| Cc1cc(CN2CC[C@H](NC(=O)c3ccc(Cl)c(Cl)c3)C2)ccc1OCCN1CCCC1 | 1.16 µM |
| O=C(NC1CCN(Cc2ccccc2)CC1)c1cc(C(=O)NC2CCN(Cc3ccccc3)CC2)cc(C(=O)NC2CCN(Cc3ccccc3)CC2)c1 | 1.04 µM |
| O=C(OCc1ccccc1)N1CCc2c([nH]c3ccccc23)C1CCC(F)(F)F (configuration not stated) | 0.425 µM |
| CC(C)n1c(C(C)(C)C)cc2c3c(N)nc(N)nc3ccc21 | 0.0032 µM |
| CC1CCC(C(C)C)C(OC(=O)CSc2nnc3c(n2)[nH]c2ccccc23)C1 (configuration not stated) | 0.931 µM |
| O=C(Nc1cc(Cl)ccc1O)c1ccc(Oc2ccc(C(=O)Nc3cc(Cl)ccc3O)cc2)cc1 | 0.92 µM |
| CCC(C)(C)c1ccc2nc(N)nc(N)c2c1C | 0.00521 µM |
| N=C(N)NN=CC(=O)Nc1ccc(Cl)cc1 | 0.814 µM |
| CCc1cccc(OCCCON2C(=N)N=C(N)NC2(C)C)c1 | 0.0032 µM |
| COc1ccc(Nc2nccc(N3CCC(NS(=O)(=O)c4ccc(NC(C)=O)cc4)C3)n2)cc1 (configuration not stated) | 0.795 µM |
| COc1ccc(C2CC(c3cccs3)=NN2C(=O)c2ccccc2)cc1OC (configuration not stated) | 0.661 µM |
| Cc1ccc2nc3c(cc(C(=O)NCc4ccccc4)c(=N)n3CCCn3ccnc3)c(=O)n2c1 | 0.993 µM |
| Cc1cc2[nH]c(-c3ccc(C(=O)NCCCN4CCN(c5cccc(Cl)c5)CC4)cc3F)nc2cc1Cl | 0.479 µM |
| CCOc1cc(C)ccc1N(C1CCN(CCCCNC(=O)c2ccc(-c3ccc(C(F)(F)F)cc3)cc2)CC1)S(=O)(=O)c1ccccc1 | 1.02 µM |

| SMILES | XC50 |
| --- | --- |
| CC(C)N1CCN(C(=O)c2ccc(CNCCCN3CCN(c4cccc(Cl)c4Cl)CC3)o2)CC1 | 0.737 µM |
| CN1CCCC1CCNCc1ccc(-c2ccc(CNCCc3ccccc3)cn2)cc1 (configuration not stated) | 1.11 µM |
| CCCNCc1ccc(-c2ccc(CN(Cc3cnc(C)cn3)C(=O)/C=C/c3ccccc3C)cc2)nc1 | 0.919 µM |
| COc1ccccc1Nc1nc(C)cc(NCc2ccc(-c3c(C)noc3C)cc2)n1 | 0.872 µM |
| Cc1cc(=NN=Cc2cccc(F)c2)c2cc(F)ccc2[nH]1 | 0.478 µM |
| CC(C)C[C@H](NC(=O)c1cc2ccccc2s1)C(=O)N[C@H]1CCN(Cc2ccc(OC[C@@H]3CCCN3C)c(Cl)c2)C1 | 0.853 µM |
| COc1ccc2[nH]c(-c3ccccc3)cc(=NN=Cc3ccncc3)c2c1 | 0.812 µM |
| O=C(N[C@H]1CCN(Cc2ccc(OCCCN3CCCCC3)cc2)C1)c1ccc(Oc2ccccc2)cc1 | 0.784 µM |
| COc1cccc(OCC2CCCN(CCCCNC(=O)c3ccc(NC(=O)c4ccc(Cl)cc4)cc3)C2)c1 (configuration not stated) | 0.748 µM |
| N#Cc1c(N2CCCCCC2)nc(N)c2c(N)nc3c(c12)CC(=O)N3c1ccc(F)cc1 | 0.213 µM |
| C[C@@H](CC1CCCCC1)NCc1cccc(NS(=O)(=O)c2ccc(O)c(-c3ccno3)c2)c1 | 0.376 µM |
| c1ccc(Oc2ccc(Nc3ccnc4cc(-c5csc(CN6CCCCC6)n5)ccc34)cc2)nc1 | 0.579 µM |
| Cc1cc(N/N=C/c2ccc([N+](=O)[O-])cc2)c2ccc(F)cc2n1 | 0.888 µM |
| Cc1cnc(C(=O)Nc2ccc3c(c2)CCCN(Cc2c[nH]c4cnccc24)C3)cn1 | 1.23 µM |
| CCn1c(-c2nonc2N)nc2c(-c3ccccc3)ncc(OCCCNCCCN3CCOCC3)c21 | 0.669 µM |
| CC(C)(C)c1cc(C(=O)N2CCN(c3ccc(C(F)(F)F)cn3)CC2)n(Cc2ccc(F)cc2)n1 | 0.978 µM |
| COc1cccc(C(=O)NCc2cccs2)c1OCc1ccccc1 | 0.921 µM |
| O=C(/C=C/c1ccc(Cl)c(Cl)c1)NCCCCCN1CC[C@H](NC(=O)c2sc3ccccc3c2Cl)C1 | 0.809 µM |
| COc1ccc2ncc(F)c(CCN3CC(O)C(CNCc4ccc5ccccc5c4)C3)c2n1 (configuration not stated) | 0.501 µM |
| Cc1cccc(C(=O)Nc2ccnc(N(C)C3CCN(Cc4cccc(O)c4)CC3)c2)c1 | 0.944 µM |
| CCCN(CCC)C(=O)c1cc(-c2cccc(C)c2)nc2ccccc12 | 1.06 µM |
| Cc1nc(-c2ccc(-c3ccc(C(=O)Nc4ccc(I)c(OCCN5CCCC5)c4)cc3)c(C)c2)no1 | 0.964 µM |
